Molecular target: T1, FOYE-1 (Ferrovum sp. JA12, UniProt A0A0R0LNE8)
T1 sequence (A0A0R0LNE8 1-354): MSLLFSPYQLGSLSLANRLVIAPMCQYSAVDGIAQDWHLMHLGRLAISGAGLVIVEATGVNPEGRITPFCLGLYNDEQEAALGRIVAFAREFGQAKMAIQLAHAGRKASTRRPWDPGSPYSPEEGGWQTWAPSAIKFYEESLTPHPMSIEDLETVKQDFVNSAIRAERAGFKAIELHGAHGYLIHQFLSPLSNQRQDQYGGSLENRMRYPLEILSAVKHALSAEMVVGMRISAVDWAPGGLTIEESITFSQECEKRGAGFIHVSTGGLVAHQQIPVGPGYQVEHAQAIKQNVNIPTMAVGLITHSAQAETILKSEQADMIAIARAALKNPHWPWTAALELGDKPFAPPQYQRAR
Test: FMN quantification at […] nm in purified protein
Assay type: binding
Settings: co-purified flavin cofactor; partly saturated holoprotein

Cc1cc2nc3c(=O)[nH]c(=O)nc-3n(C[C@H](O)[C@H](O)[C@H](O)COP(=O)(O)O)c2cc1C [FMN]
FMN saturation: found to be only partially saturated with the flavin mononucleotide (FMN) cofactor

— paper PMC7216909 (Chembiochem, 2020)
